Reference: the NIST ThermoML archive (doi:10.1016/j.jct.2008.04.010)
“And” between values parts separate entries of the source, which are not always exact repeats. Equal entries are not always repeated.

What was measured:
[1] = Molar enthalpy of transition or fusion; conditions: Crystal; DSC
[2] = for vapor or sublimation pressure: Calculated from knudsen effusion weight loss; for Normal melting temperature: DTA
[3] = molar enthalpy of vaporization or sublimation; conditions: 298.15 K; Liquid; Calvet microcalorimetry

c1ccc(-c2ccc3ccccc3c2)cc1 [2-phenylnaphthalene]
Conditions | Molar enthalpy of transition or fusion [kcal/mol]
[1] | 4.28

[2], Crystal
Conditions | vapor or sublimation pressure
333.11 K | 0.000132 kPa and 0.000137 kPa
335.63 K | 0.000185 kPa and 0.000183 kPa and 0.00018 kPa
338.2 K | 0.000244 kPa and 0.000239 kPa
340.61 K | 0.00032 kPa and 0.000316 kPa and 0.000318 kPa
343.13 K | 0.00042 kPa and 0.000421 kPa and 0.000419 kPa
345.69 K | 0.000558 kPa and 0.000553 kPa and 0.000544 kPa
348.12 K | 0.000729 kPa and 0.000707 kPa and 0.000716 kPa
350.62 K | 0.000939 kPa and 0.000941 kPa and 0.000909 kPa
353.19 K | 0.001212 kPa and 0.001224 kPa and 0.001185 kPa

Conditions | Normal melting temperature [°C]
[2], Crystal | 100.4

c1ccc(-c2cccc3ccccc23)cc1 [1-phenylnaphthalene]
Conditions | molar enthalpy [kcal/mol]
[3] | 19.4

c1ccc(-c2ccc(-c3ccc4ccccc4c3)cc2)cc1 [2-(biphen-4-yl)naphthalene]
Conditions | Molar enthalpy of transition or fusion [kcal/mol]
[1] | 6

[2], Crystal
Conditions | vapor or sublimation pressure
405.17 K | 6.2e-05 kPa and 6.3e-05 kPa
409.14 K | 9.1e-05 kPa and 8.8e-05 kPa and 8.9e-05 kPa
411.18 K | 0.000111 kPa and 0.000112 kPa
413.18 K | 0.000131 kPa and 0.000135 kPa and 0.000134 kPa
415.14 K | 0.000164 kPa and 0.00016 kPa and 0.000161 kPa
417.19 K | 0.000197 kPa
419.09 K | 0.000237 kPa and 0.000235 kPa and 0.00023 kPa
421.14 K | 0.000283 kPa and 0.00028 kPa
423.09 K | 0.000339 kPa and 0.000342 kPa and 0.000336 kPa
425.19 K | 0.000418 kPa and 0.000424 kPa and 0.000416 kPa
429.21 K | 0.000609 kPa and 0.000597 kPa
433.15 K | 0.000855 kPa and 0.000839 kPa
437.19 K | 0.001171 kPa and 0.001222 kPa and 0.001194 kPa

Conditions | Normal melting temperature [°C]
[2], Crystal | 216.4

c1ccc(-c2cccc(-c3ccc4ccccc4c3)c2)cc1 [2-(biphen-3-yl)naphthalene]
Conditions | Molar enthalpy of transition or fusion [kcal/mol]
[1] | 4.42

[2], Liquid
Conditions | vapor or sublimation pressure
381.08 K | 8.1e-05 kPa and 8.3e-05 kPa
385.17 K | 0.000117 kPa
389.15 K | 0.000174 kPa
389.17 K | 0.000177 kPa
393.18 K | 0.000216 kPa and 0.000218 kPa and 0.000223 kPa
397.15 K | 0.000323 kPa and 0.000303 kPa
397.17 K | 0.000315 kPa
401.14 K | 0.00041 kPa and 0.000429 kPa and 0.000427 kPa
405.18 K | 0.000546 kPa and 0.000585 kPa and 0.000588 kPa
409.08 K | 0.000767 kPa and 0.000773 kPa and 0.00079 kPa
413.17 K | 0.001087 kPa and 0.001156 kPa

Conditions | Normal melting temperature [°C]
[2], Crystal | 73.2
